These results are taken from patent US20230329989A1, “A PERSONAL CARE COMPOSITION COMPRISING AMINO ACIDS” (priority 2020, published 2023).

The subject of assay [1] is S. epidermidis. The assay is described as follows: Growth of S. epidermidis in the presence of a single amino acid as supplement. In kind it is cell-based. The note with it: 0.1% individual amino acid in 10% TSB + 1% glucose, 37° C., 24 hrs, absorbance at 600 nm normalized to control without amino acid; for activity at 0.1 %: Staphylococcus epidermidis. On the procedure: The growth of the above commensal bacteria due to the presence of each of the twenty different amino acids separately was studied. All 20 L-amino acids were procured from Hi media. The stocks were prepared in distilled water and filter sterilized by passing it through 0.22 μm filter. A 100 mM sodium phosphate buffer pH 7.4 was prepared and filter sterilized. Reaction was set up in a 96 well flat bottom transparent plate. […] The final concentration of individual amino acid was 0.1%. Each reaction was set up in triplicates. The plate was incubated at 37° C. under stationary conditions for 24 hrs. After 24 hrs, the absorbance of the plate was measured at 600 nm using TECAN plate reader. The absorbance values were then normalized to control (S. epidermidis grown in 10% TSB+1% glucose).

For assay [2], the system named is S. aureus. The assay is described as follows: Growth kinetics of S. aureus with individual amino acids. As to conditions: 0.1 wt % individual amino acid; for inhibition of S. aureus (in words): among the seven selected; for Absorbance at 600 nm: S. aureus, growth till 20 hours. The assay is classed as cell-based. As to the method: In order to identify a set of amino acids which are major contributors to the higher growth rate of S. aureus in Mix 7, growth kinetics experiments were carried out with all seven individual amino acids. […] The experiment was carried out for growth till 20 hours. They were carried out at 0.1 wt % concentration of the individual amino acid.

For the molecule `NC(=O)CC[C@H](N)C(=O)O` [Example 1H, Glutamine], the activity at 0.1 % in assay [1] came to 109%. `NC(CC(=O)O)C(=O)O` (stereo not drawn) [Example 1D, Aspartic acid]: in assay [1], the activity at 0.1 % stood at 121%. Besides, in assay [2], the “inhibition of S. aureus (in words)” value is “maximum inhibition” and the “Absorbance at 600 nm” value is given as 0.540. For `C[C@@H](O)[C@H](N)C(=O)O` [Example 1R, Threonine], the activity at 0.1 % in assay [1] turned out to be 126%. Also, the “Absorbance at 600 nm” value in assay [2] was 0.697. With `NCC(=O)O` [Example 1F, Glycine], the “% growth” value in assay [1] worked out at 135%. The “Absorbance at 600 nm” value in assay [2] is 0.863.

For `CC(C)[C@H](N)C(=O)O` [Example 1T, Valine], the activity at 0.1 % in assay [1] was found to be 96%. On to `N[C@@H](Cc1ccc(O)cc1)C(=O)O` [Example 1Q, Tyrosine], for which the activity at 0.1 % in assay [1] was found to be 120%. In assay [2], the “inhibition of S. aureus (in words)” value was “maximum inhibition” and the “Absorbance at 600 nm” value came out at 0.478. `CC(C)C[C@H](N)C(=O)O` [Example 1K, Leucine]: the activity at 0.1 % in assay [1] is 96%. Regarding `CC(N)C(=O)O` (stereo not drawn) [Example 1A, Alanine], the activity at 0.1 % in assay [1] came out at 139%. For the same molecule, in assay [2], the “inhibition of S. aureus (in words)” value is “maximum inhibition” and the “Absorbance at 600 nm” value was 0.447. The corresponding values for `NC(CS)C(=O)O` (stereo not drawn) [Example 1E, Cysteine] are 121%, “maximum inhibition” and 0.476. Take `CSCC[C@H](N)C(=O)O` [Example 1M, Methionine]: the activity at 0.1 % in assay [1] worked out at 87%. Still for that read-out and setting: with `NC(=O)C[C@H](N)C(=O)O` [Example 1C, Asparagine] the figure was 113%.

Take `N[C@@H](Cc1c[nH]cn1)C(=O)O` [Example 11, Histidine]: the activity at 0.1 % in assay [1] amounted to 96%. `O=C(O)[C@@H]1CCCN1` [Example 1O, Proline]: in assay [1], the activity at 0.1 % worked out at 93%. In the case of `N[C@@H](CO)C(=O)O` [Example 1P, Serine], in assay [1], the activity at 0.1 % stood at 134%. Besides, in assay [2], the “inhibition of S. aureus (in words)” value is “maximum inhibition” and the “Absorbance at 600 nm” value was 0.504. With `CC[C@H](C)[C@H](N)C(=O)O` [Example 1J, Isoleucine], the activity at 0.1 % in assay [1] was 99%.
